# In patent US20240092799A1, “MNK INHIBITORS” (Hepagene Therapeutics (HK) Limited, priority 2020, published 2024):
# Tests used:
# [1] = biological target: MNK1 (Homo sapiens (Human), UniProt Q9BUB5); assay: MNK Biochemical Enzymatic Assay (ADP-Glo), MNK1 binding assay
# Description: MNK Biochemical Enzymatic Assay. This protocol establishes the binding assays for MNK1 and MNK2 using ADP-Glo assay. MNK phosphorylates the substrate and converts ATP to ADP, which was detected by Envision and used to reflect the reminding activity of MNK. Reagents and equipment used in the assay are listed below, followed by the protocol.
# • a) Add 50 μL compound to 384-well dilution plate • b) Dilute compound 1:3 in succession in DMSO for each column for 10+0 pts (refer to dilution plate map) • c) Transfer 0.1 μL diluted compound solution in each row to 384 assay plate using Echo, each column containing 2 replicates (refer to assay plate map) • d) Add 5 μL enzyme working solution to 384-well assay plate, centrifuge 1000 RPM for 1 min • e) Incubate at 25° C. for 15 min • f) Add 5 μL substrate working solution to initiate reaction • g) Incubate at 25° C. for 60 min • h) Add 10 μL ADP Glo reagent, centrifuge 1000 RPM for 1 min • i) Incubate at 25° C. for 60 min • j) Add 20 μL kinase detection reagent, centrifuge 1000 RPM for 1 min • k) Incubate at 25° C. for 60 min • l) Read on Envision for US LUM as RLU • m) Data analysis: IC50s were determined based on a non-linear regression analysis of data collected.
# [2] = biological target: MNK2 (Homo sapiens (Human), UniProt Q9HBH9); assay: MNK Biochemical Enzymatic Assay (ADP-Glo), MNK2 binding assay
# Sequence of MNK2 (Q9HBH9 whole entry): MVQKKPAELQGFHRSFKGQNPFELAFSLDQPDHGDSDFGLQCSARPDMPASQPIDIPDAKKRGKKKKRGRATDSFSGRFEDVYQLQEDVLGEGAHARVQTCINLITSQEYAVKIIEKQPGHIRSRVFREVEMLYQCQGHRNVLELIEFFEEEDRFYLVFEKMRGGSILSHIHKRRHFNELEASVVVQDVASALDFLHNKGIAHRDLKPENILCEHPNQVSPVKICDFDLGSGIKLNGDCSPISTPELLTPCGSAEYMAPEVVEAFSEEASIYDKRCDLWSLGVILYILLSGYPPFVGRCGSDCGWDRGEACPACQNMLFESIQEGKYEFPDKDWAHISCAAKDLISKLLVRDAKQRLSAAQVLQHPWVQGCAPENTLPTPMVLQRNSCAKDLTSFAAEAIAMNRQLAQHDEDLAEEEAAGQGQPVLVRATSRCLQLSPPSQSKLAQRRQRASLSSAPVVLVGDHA
# How it was run: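 Human MNK1 or MNK2 was preincubated with a 10-point, 1:3 serial dilution of compound for 15 min at 25 °C. Substrate was then added and the reaction ran 60 min at 25 °C. ADP formed was read by ADP-Glo luminescence, and IC50 came from non-linear regression.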
# [3] = tested on: TMD-8 cell p-IF4E; assay: p-eIF4E Signaling Cellular Assay (CisBio HTRF) in TMD-8 cells; type: cell-based; details: Homo sapiens, TMD8, 40 min, 40 min treatment
# How it was run: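 TMD-8 cells (20 k/well, exponential phase, RPMI 1640 + 10% FBS) treated with compound for 40 min at 37 °C, then lysed for 30 min and incubated overnight at RT with HTRF antibodies. 665/620 nm ratio converted to % inhibition vs controls; IC50 from variable-slope nonlinear fit.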
# Sequence of MNK1 (Q9BUB5 other isoform, or with tags, fused parts or gaps isoform Q9BUB5-2): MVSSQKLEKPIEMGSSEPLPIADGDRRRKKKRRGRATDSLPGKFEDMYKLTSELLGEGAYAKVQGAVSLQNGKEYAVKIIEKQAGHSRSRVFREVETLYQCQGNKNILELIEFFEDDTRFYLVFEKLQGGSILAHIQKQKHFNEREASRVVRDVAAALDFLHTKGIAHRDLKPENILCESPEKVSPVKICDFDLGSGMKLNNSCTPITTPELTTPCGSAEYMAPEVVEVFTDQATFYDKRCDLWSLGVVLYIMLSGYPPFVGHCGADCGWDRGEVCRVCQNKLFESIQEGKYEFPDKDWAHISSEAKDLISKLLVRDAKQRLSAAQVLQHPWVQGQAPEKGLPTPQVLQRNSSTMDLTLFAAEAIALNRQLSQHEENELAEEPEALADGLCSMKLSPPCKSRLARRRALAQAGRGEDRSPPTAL
Compound,IC50 [1],IC50 [2],IC50 [3]
"Nc1cc(Nc2c(=O)n3c(c4ccccc24)C(=O)NC32CCCCC2)ncn1 [Compound III, 6′-((6-Aminopyrimidin-4-yl)amino)-2′H-spiro[cyclohexane-1,3′-imidazo[5,1-a]isoquinoline]-1′,5′-dione]",> 1000 nM,> 1000 nM,
"Cc1cc(Nc2cc(N)ncn2)c(=O)n2c1C(=O)N[C@@]21C[C@H]2CC[C@@H]1C2 [Compound IIb, (1R,2S,4S)-6′-((6-aminopyrimidin-4-yl)amino)-8′-methyl-2′H-spiro[bicyclo[2.2.1]heptane-2,3′-imidazo[1,5-a]pyridine]-1′,5′-dione]",0.1 to 10 nM,0.1 to 10 nM,
"Cc1cc(Nc2cc(N)ncn2)c(=O)n2c1C(=O)N[C@]21C[C@H]2CC[C@@H]1C2 [Compound IIa, (1R,2R,4S)-6′-((6-Aminopyrimidin-4-yl)amino)-8′-methyl-2′H-spiro[bicyclo[2.2.1]heptane-2,3′-imidazo[1,5-a]pyridine]-1′,5′-dione]",0.1 to 10 nM,0.1 to 10 nM,
"O=C1NC2(CCCCC2)c2cc(Nc3cc(NCCO)ncn3)sc21 [Compound XXIII-J, 2′-((6-((2-Hydroxyethyl)amino)pyrimidin-4-yl)amino)spiro[cyclohexane-1,4′-thieno[2,3-c]pyrrol]-6′(5′H)-one]",,0.1 to 10 nM,100 to 1000 nM
"Cc1cc2c(Nc3cc4c(s3)C(=O)NC43CCCCC3)ncnc2[nH]1 [Compound XVII-C, 2′-((6-methyl-7H-pyrrolo[2,3-d]pyrimidin-4-yl)amino)spiro[cyclohexane-1,4′-thieno[2,3-c]pyrrol]-6′(5′H)-one]",,0.1 to 10 nM,10 to 100 nM
"CNC(=O)Nc1cc(Nc2cc3c(s2)C(=O)NC32CCCCC2)ncn1 [Compound XXIV-G, 1-methyl-3-(6-((6′-oxo-5′,6′-dihydrospiro[cyclohexane-1,4′-thieno[2,3-c]pyrrol]-2′-yl)amino)pyrimidin-4-yl)urea]",,0.1 to 10 nM,100 to 1000 nM
"O=C1NC2(CCCCC2)c2cc(Nc3cc(N[C@H]4CCOC4)ncn3)sc21 [Compound XXIV-C, (S)-2′-((6-((tetrahydrofuran-3-yl)amino)pyrimidin-4-yl)amino)spiro[cyclohexane-1,4′-thieno[2,3-c]pyrrol]-6′(5′H)-one]",,0.1 to 10 nM,10 to 100 nM
"CO[C@H]1C[C@@H](Nc2cc(Nc3cc(C)c4c([n+]3[O-])C3(CCCCC3)NC4=O)ncn2)C1 [Compound XXIX-AAE, 2′-((6-((cis-3-methoxycyclobutyl)amino)pyrimidin-4-yl)amino)-4′-methyl-5′-oxo-5′,6′-dihydrospiro[cyclohexane-1,7′-pyrrolo[3,4-b]pyridine] 1′-oxide]",,0.1 to 10 nM,0.1 to 10 nM
"Nc1cc(Nc2c3c(c4n(c2=O)C2(CCCCC2)NC4=O)CCC3)ncn1 [Compound I, 6′-((6-Aminopyrimidin-4-yl)amino)-8′,9′-dihydrospiro[cyclohexane-1,3′-cyclopenta[c]imidazo[1,5-a]pyridine]-1′,5′(2′H,7′H)-dione]",> 1000 nM,> 1000 nM,
"Cn1ccc(Nc2cc(Nc3cc4c(s3)C(=O)NC43CCCCC3)ncn2)n1 [Compound XXIII-P, 2′-((6-((1-methyl-1H-pyrazol-3-yl)amino)pyrimidin-4-yl)amino)spiro[cyclohexane-1,4′-thieno[2,3-c]pyrrol]-6′(5′H)-one]",,0.1 to 10 nM,10 to 100 nM

# Next, values leading:
IC50 [1],IC50 [2],IC50 [3],Compound
,0.1 to 10 nM,10 to 100 nM,"Cc1cc(Nc2cc(N[C@H]3C[C@@H](O)C3)ncn2)[n+]([O-])c2c1C(=O)NC21CCCCC1 [Compound XXIX-AP, 2′-((6-(((cis)-3-hydroxycyclobutyl)amino)pyrimidin-4-yl)amino)-4′-methyl-5′-oxo-5′,6′-dihydrospiro[cyclohexane-1,7′-pyrrolo[3,4-b]pyridine] 1′-oxide]"
,0.1 to 10 nM,10 to 100 nM,"Cc1cc(Nc2cc(Nc3ncc(F)cc3F)ncn2)[n+]([O-])c2c1C(=O)NC21CCCCC1 [Compound XXIX-AM, 2′-((6-((3,5-difluoropyridin-2-yl)amino)pyrimidin-4-yl)amino)-4′-methyl-5′-oxo-5′,6′-dihydrospiro[cyclohexane-1,7′-pyrrolo[3,4-b]pyridine] 1′-oxide]"
,10 to 100 nM,100 to 1000 nM,"C[C@@H]1COCCN1C(=O)C1CCc2c(sc3ncnc(Nc4cc5c(s4)C(=O)NC54CCCCC4)c23)C1 (stereo partly drawn) [Compound XXV-C, 2′-((7-((R)-3-Methylmorpholine-4-carbonyl)-5,6,7,8-tetrahydrobenzo[4,5]thieno[2,3-d]pyrimidin-4-yl)amino)spiro[cyclohexane-1,4′-thieno[2,3-c]pyrrol]-6′(5′H)-one]"
,0.1 to 10 nM,10 to 100 nM,"Cc1cc(Nc2cc(Nc3ncn(C)n3)ncn2)[n+]([O-])c2c1C(=O)NC21CCCCC1 [Compound XXIX-AD, 4′-methyl-2′-((6-((1-methyl-Ill-1,2,4-triazol-3-yl)amino)pyrimidin-4-yl)amino)-5′-oxo-5′,6′-dihydrospiro[cyclohexane-1,7′-pyrrolo[3,4-b]pyridine] 1′-oxide]"
,0.1 to 10 nM,0.1 to 10 nM,"Cc1cc(Nc2cc(Nc3ccccn3)ncn2)[n+]([O-])c2c1C(=O)NC21CCCCC1 [Compound XXIX-D, 4′-methyl-5′-oxo-2′-((6-(pyridin-2-ylamino)pyrimidin-4-yl)amino)-5′,6′-dihydrospiro[cyclohexane-1,7′-pyrrolo[3,4-b]pyridine] 1′-oxide]"
,0.1 to 10 nM,10 to 100 nM,"O=C1NC2(CCCCC2)c2nc(Nc3cc(NC(=O)C4CCCC4)ncn3)sc21 [Compound XXVIII-C, N-(6-((6′-oxo-5′,6′-dihydrospiro[cyclohexane-1,4′-pyrrolo[3,4-d]thiazol]-2′-yl)amino)pyrimidin-4-yl)cyclopentanecarboxamide]"
,0.1 to 10 nM,100 to 1000 nM,"O=C1NC2(CCCCC2)c2nc(Nc3cc(N[C@H]4C[C@@H](O)C4)ncn3)sc21 [Compound XXVIII-O, Cis-2′-((6-(((1s,3s)-3-hydroxycyclobutyl)amino)pyrimidin-4-yl)amino)spiro[cyclohexane-1,4′-pyrrolo[3,4-d]thiazol]-6′(5′H)-one]"
